In patent US11708348B2, “Protease inhibitors for treatment of coronavirus infections” (The Scripps Research Institute, priority 2021, dated 2023) one finds EC50 data, which are given here for 22 molecules.

What is called EC50 is the concentration needed to bring the measured effect to its halfway point.

One assay relates to SARS-CoV-2 strain USA-WA1/2020. In words: microbe, parasite or virus in culture. In kind it is cell-based. The following applies: Severe acute respiratory syndrome coronavirus 2, HeLa-ACE2, 24 h, HeLa-ACE2 cells, SARS-CoV-2 infection, 24 h; bound printed in cell; read-out: EC50, uM (Hela).
Regarding `CC(C)C[C@H](NC(=O)[C@H](CCCCN)NC(=O)c1ccccc1F)C(=O)N[C@@H](C[C@@H]1CCNC1=O)C(=O)COC(F)(F)F` [Compound 208, N-((S)-6-amino-1-(((S)-4-methyl-1-oxo-1-(((S)-3-oxo-1-((S)-2-oxopyrrolidin-3-yl)-4-(trifluoromethoxy)butan-2-yl)amino)pentan-2-yl)amino)-1-oxohexan-2-yl)-2-fluorobenzamide], the half-maximal effective concentration (EC50) is greater than 1 µM.

The same assay, now with this note: Severe acute respiratory syndrome coronavirus 2, HeLa-ACE2, 24 h, HeLa-ACE2 cells, SARS-CoV-2 infection, 24 h; cells given as a bound; read-out: EC50, uM (Hela).
Turning to `CC(C)C[C@H](NC(=O)OC1CCCC1)C(=O)N[C@@H](C[C@@H]1CCNC1=O)C(=O)COc1c(F)c(F)cc(F)c1F` [Compound 21, cyclopentyl ((S)-4-methyl-1-oxo-1-(((S)-3-oxo-1-((S)-2-oxopyrrolidin-3-yl)-4-(2,3,5,6-tetrafluorophenoxy)butan-2-yl)amino)pentan-2-yl)carbamate], the EC50 was greater than 1 µM.

Staying with this assay, now noted: Severe acute respiratory syndrome coronavirus 2, HeLa-ACE2, 24 h, HeLa-ACE2 cells, SARS-CoV-2 infection, 24 h; class symbols; read-out: EC50, uM (Hela).
For `CC(C)(C)CC(O)C(=O)N1CC2(CC2)C[C@H]1C(=O)N[C@@H](C[C@@H]1CCNC1=O)C(=O)COC(F)(F)F` (stereo partly drawn) [Compound 346, (6S)-5-(2-hydroxy-4,4-dimethylpentanoyl)-N-((S)-3-oxo-1-((S)-2-oxopyrrolidin-3-yl)-4-(trifluoromethoxy)butan-2-yl)-5-azaspiro[2.4]heptane-6-carboxamide], the concentration for a half-maximal effect (EC50) was less than 0.05 µM.

As to `CC(C)C[C@H](NC(=O)C1Cc2ccccc2N1)C(=O)N[C@@H](C[C@@H]1CCNC1=O)C(=O)COC(F)(F)F` (stereo partly drawn) [Compound 204, N-((S)-4-methyl-1-oxo-1-(((S)-3-oxo-1-((S)-2-oxopyrrolidin-3-yl)-4-(trifluoromethoxy)butan-2-yl)amino)pentan-2-yl)indoline-2-carboxamide], the EC50 lay within 0.05 to 0.2 µM.

Consider `CC(C)C[C@H](NC(=O)C(=O)Nc1ccc2ccccc2c1)C(=O)N[C@@H](C[C@@H]1CCNC1=O)C(=O)COc1c(F)c(F)cc(F)c1F` [Compound 34, N1-((S)-4-methyl-1-oxo-1-(((S)-3-oxo-1-((S)-2-oxopyrrolidin-3-yl)-4-(2,3,5,6-tetrafluorophenoxy)butan-2-yl)amino)pentan-2-yl)-N2-(naphthalen-2-yl)oxalamide], for which the EC50 lay within 0.05 to 0.2 µM.

With `O=C(Nc1ccccc1F)C(=O)NC(CC1CCOCC1)C(=O)N[C@@H](C[C@@H]1CCNC1=O)C(=O)COC(F)(F)F` (stereo partly drawn) [Compound 271, N1-(2-fluorophenyl)-N2-(1-oxo-1-(((S)-3-oxo-1-((S)-2-oxopyrrolidin-3-yl)-4-(trifluoromethoxy)butan-2-yl)amino)-3-(tetrahydro-2H-pyran-4-yl)propan-2-yl)oxalamide], the EC50 is less than 0.05 µM.

Turning to `CC(C)C[C@H](NC(=O)C(=O)Nc1ccccc1)C(=O)N[C@@H](C[C@@H]1CCNC1=O)C(=O)COc1c(F)c(F)cc(F)c1F` [Compound 10, N1-((S)-4-methyl-1-oxo-1-(((S)-3-oxo-1-((S)-2-oxopyrrolidin-3-yl)-4-(2,3,5,6-tetrafluorophenoxy)butan-2-yl)amino)pentan-2-yl)-N2-phenyloxalamide], the EC50 was less than 0.05 µM.

In the case of `CC(C)C[C@H](NC(=O)C(=O)Nc1ccccc1F)C(=O)N[C@@H](C[C@@H]1CCNC1=O)C(=O)COc1c(F)ccc(F)c1F` [Compound 132, N1-(2-fluorophenyl)-N2-((S)-4-methyl-1-oxo-1-(((S)-3-oxo-1-((S)-2-oxopyrrolidin-3-yl)-4-(2,3,6-trifluorophenoxy)butan-2-yl)amino)pentan-2-yl)oxalamide], the EC50 fell in the range of 0.05 to 0.2 µM.

`CC(C)C[C@H](NC(=O)c1ccc2c(c1)OCO2)C(=O)N[C@@H](C[C@@H]1CCNC1=O)C(=O)COc1c(F)c(F)cc(F)c1F` [Compound 24, N-((S)-4-methyl-1-oxo-1-(((S)-3-oxo-1-((S)-2-oxopyrrolidin-3-yl)-4-(2,3,5,6-tetrafluorophenoxy)butan-2-yl)amino)pentan-2-yl)benzo[d][l,3]dioxole-5-carboxamide]: the EC50 fell in the range of 0.2 to 0.5 µM.

As to `CC(C)C[C@H](NC(=O)C(=O)Nc1ccccc1)C(=O)N[C@@H](C[C@@H]1CCNC1=O)C(=O)COC(F)(F)F` [Compound 122, N1-((S)-4-methyl-1-oxo-1-(((S)-3-oxo-1-((S)-2-oxopyrrolidin-3-yl)-4-(trifluoromethoxy)butan-2-yl)amino)pentan-2-yl)-N2-phenyloxalamide], the EC50 was less than 0.05 µM.

Consider `CC(C)C[C@H](NC(=O)C(=O)NC1CCC1)C(=O)N[C@@H](C[C@@H]1CCNC1=O)C(=O)COC(F)(F)F` [Compound 221, N1-cyclobutyl-N2-((S)-4-methyl-1-oxo-1-(((S)-3-oxo-1-((S)-2-oxopyrrolidin-3-yl)-4-(trifluoromethoxy)butan-2-yl)amino)pentan-2-yl)oxalamide], for which the EC50 is less than 0.05 µM.

The assay is the same for the next values; noted with them: Severe acute respiratory syndrome coronavirus 2, HeLa-ACE2, 24 h, HeLa-ACE2 cells, SARS-CoV-2 infection, 24 h; read-out: EC50, uM (Hela).
As for `CC(C)(C)c1cccc(C(=O)N2CC3(CC3)C[C@H]2C(=O)N[C@@H](C[C@@H]2CCNC2=O)C(=O)COC(F)(F)F)c1` [Compound 458, (S)-5-(3-(tert-butyl)benzoyl)-N-((S)-3-oxo-1-((S)-2-oxopyrrolidin-3-yl)-4-(trifluoromethoxy)butan-2-yl)-5-azaspiro[2.4]heptane-6-carboxamide], the EC50 was less than 0.05 µM.

With `[2H]C([2H])([2H])C([2H])([2H])C([2H])([2H])C([2H])([2H])C([2H])([2H])C(=O)N1CC2(CC2)C[C@H]1C(=O)N[C@@H](C[C@@H]1CCNC1=O)C(=O)COC(F)(F)F` [Compound 733, (S)-5-(hexanoyl-d 11)-N-((S)-3-oxo-1-((S)-2-oxopyrrolidin-3-yl)-4-(trifluoromethoxy)butan-2-yl)-5-azaspiro[2.4]heptane-6-carboxamide], the EC50 is less than 0.05 µM.

Consider `CC(C)NC(=O)C(=O)N1CC2(CC2)C[C@H]1C(=O)N[C@@H](C[C@@H]1CCNC1=O)C(=O)COC(F)(F)F` [Compound 747, (S)-5-(2-(isopropylamino)-2-oxoacetyl)-N-((S)-3-oxo-1-((S)-2-oxopyrrolidin-3-yl)-4-(trifluoromethoxy)butan-2-yl)-5-azaspiro[2.4]heptane-6-carboxamide], for which the EC50 was less than 0.05 µM.

`O=C(N[C@H]1[C@@H]2COC[C@@H]21)C(=O)N1C[C@@H]2CCC[C@@H]2[C@H]1C(=O)N[C@@H](C[C@@H]1CCNC1=O)C(=O)COC(F)(F)F` [Compound 548, (1S,3aR,6aS)-2-(2-(((1R,5S,6r)-3-oxabicyclo[3.1.0]-hexan-6-yl)amino)-2-oxoacetyl)-N-((S)-3-oxo-1-((S)-2-oxopyrrolidin-3-yl)-4-(trifluoromethoxy)butan-2-yl)octahydrocyclo-penta[c]pyrrole-1-carboxamide]: the concentration for a half-maximal effect (EC50) lay within 0.2 to 0.5 µM.

`O=C1NCC[C@H]1C[C@H](NC(=O)[C@@H]1[C@H]2CCC[C@H]2CN1C(=O)[C@@H](O)c1ccccc1)C(=O)COC(F)(F)F` [Compound 417, (1S,3aR,6aS)-2-((S)-2-hydroxy-2-phenylacetyl)-N-((S)-3-oxo-1-((S)-2-oxopyrrolidin-3-yl)-4-(trifluoromethoxy)butan-2-yl)octahydrocyclo-penta[c]pyrrole-1-carboxamide]: the EC50 is less than 0.05 µM.

Consider `O=C1NCC[C@H]1C[C@H](NC(=O)[C@@H]1CC2(CC2)CN1C(=O)CCC(F)F)C(=O)COC(F)(F)F` [Compound 683, (S)-5-(4,4-difluorobutanoyl)-N-((S)-3-oxo-1-((S)-2-oxopyrrolidin-3-yl)-4-(trifluoromethoxy)butan-2-yl)-5-azaspiro[2.4]heptane-6-carboxamide], for which the EC50 was in the range of 0.05 to 0.2 µM.

With `CC(C)(C)[C@H](NC(=O)OCc1ccccc1)C(=O)N1C[C@H]2[C@@H]([C@H]1C(=O)N[C@@H](C[C@@H]1CCNC1=O)C(=O)COC(F)(F)F)C2(C)C` [Compound 620, benzyl ((S)-1-((1R,2S,5S)-6,6-dimethyl-2-(((S)-3-oxo-1-((S)-2-oxopyrrolidin-3-yl)-4-(trifluoromethoxy)butan-2-yl)carbamoyl)-3-azabicyclo[3.1.0]hexan-3-yl)-3,3-dimethyl-1-oxobutan-2-yl)carbamate], the EC50 is less than 0.05 µM.

In the case of `CC(C)(F)C(=O)N1CC2(CC2)C[C@H]1C(=O)N[C@@H](C[C@@H]1CCNC1=O)C(=O)COC(F)(F)F` [Compound 735, (S)-5-(2-fluoro-2-methylpropanoyl)-N-((S)-3-oxo-1-((S)-2-oxopyrrolidin-3-yl)-4-(trifluoromethoxy)butan-2-yl)-5-azaspiro[2.4]heptane-6-carboxamide], the EC50 is less than 0.05 µM.

For `O=C(N[C@@H](Cc1ccccc1)C(=O)N[C@@H](C[C@@H]1CCNC1=O)C(=O)COC(F)(F)F)c1cc(-c2ccccc2F)on1` [Compound 460, 5-(2-fluorophenyl)-N-((S)-1-oxo-1-(((S)-3-oxo-1-((S)-2-oxopyrrolidin-3-yl)-4-(trifluoromethoxy)butan-2-yl)amino)-3-phenylpropan-2-yl)isoxazole-3-carboxamide], the EC50 was less than 0.05 µM.

Take `O=C1NCC[C@H]1C[C@H](NC(=O)[C@@H]1CC2(CC2)CN1C(=O)[C@H](O)C/C=C/c1ccc(F)cc1)C(=O)COC(F)(F)F` [Compound 667, (S)-5-((R,E)-5-(4-fluorophenyl)-2-hydroxypent-4-enoyl)-N-((S)-3-oxo-1-((S)-2-oxopyrrolidin-3-yl)-4-(trifluoromethoxy)butan-2-yl)-5-azaspiro[2.4]heptane-6-carboxamide]: the EC50 was in the range of 0.05 to 0.2 µM.

Consider `O=C(Nc1ccccc1OC(F)(F)F)C(=O)N1CC2(CC2)C[C@H]1C(=O)N[C@@H](C[C@@H]1CCNC1=O)C(=O)COC(F)(F)F` [Compound 610, (S)-N-((S)-3-oxo-1-((S)-2-oxopyrrolidin-3-yl)-4-(trifluoromethoxy)butan-2-yl)-5-(2-oxo-2-((2-(trifluoromethoxy)phenyl)amino)acetyl)-5-azaspiro[2.4]heptane-6-carboxamide], for which the EC50 is less than 0.05 µM.
